Tests used:
Experiment in all cases: MTT assay (CellTiter96), cytotoxic activity
Type in all cases: cell-based
[1] = system: A2780cis; conditions: for RF A2780 (resistance factor): A2780cis vs A2780; for IC50: Cisplatin resistant A2780, MTT assay, 48 h incubation
Experimental: (§1) The biological behaviour of all substances was characterized by their cytotoxic activity against a panel of cell lines enabling an understanding of the structure-activity relationship. Cytotoxic activity was determined on ovarian carcinoma cell lines SKOV3 and A2780 as well as their Cisplatin resistant analogues (SKOV3cis and A2780cis) and the lung carcinoma cell line A549. Due to a low solubility in water, dmso is used as a solvent for the preparation of a dilution series in cell culture experiments. The toxic influence of dmso was determined earlier and experiments were carried out with 0.5% dmso in cell culture media and this concentration was used as reference sample in each MTT assay (details: Section 3). […] Resistance factors (RF) were determined for all substances (for IC50 values and RF of β-Hydroxydithiocinnamic acid esters L1–L18, see Tables S2 and S3, Supplementary part). All investigated ruthenium(II) compounds show lower RF values than Cisplatin on ovarian carcinoma cell lines, ranging from 0.2 to 1.5 (Table 3). Whereas the IC50 values on the non-resistant cell lines are in most cases higher than the IC50 of the reference substance, no increase of IC50 values is observed for the resistant cell lines. Contrary, eight ruthenium complexes show lower IC50 values on SKOV3cis than Cisplatin and four compounds on A2780cis. Thus, it can be concluded that these compounds are able to bypass the Cisplatin resistance mechanism in these cell lines pointing to a different mechanism of action.
(§2) Ovarian cancer cell lines were cultured under standard conditions (5% CO2, 37 °C, 90% humidity) in RPMI medium supplemented with 10% FCS, 100 U/mL penicillin and 100 µg/mL streptomycin (Life Technologies, Dreieich, Germany). Cisplatin (Sigma, Taufkirchen, Germany) was freshly dissolved at 1 mg/mL in 0.9% NaCl solution and diluted appropriately. New ruthenium(II) complexes and ligands were dissolved in dmso. Platinum-resistant A2780 and SKOV3 cells were established by repeated rounds of 3-day incubations with increasing amounts of Cisplatin starting with 0.1 µM. The concentration was doubled after 3 incubations, interrupted by recovery phases with normal medium. […] Determinations of IC50 values were carried out using the CellTiter96 non-radioactive proliferation assay (MTT assay, Promega, Mannheim, Germany). After seeding 5000 cells per well in a 96-well plate, cells were allowed to attach for 24 h and were incubated for 48 h with different concentrations of the substances ranging from 0 to 500 µM for Ruthenium and 0 to 1000 µM for ligand tests (0, 1, 10, 50, 100, 500, 1000 µm), for Cisplatin from 0 to 100 µM (0.1, 1, 5, 10, 50, 100 µM). Each measurement was done in triplicate and repeated 3 times. The proportion of viable cells was quantified by the MTT assay and after background subtraction relative values compared to the mean of medium controls were calculated. Non-linear regression analyses applying the Hill slope were run in GraphPad 5.0 software.

[2] = system: A2780; conditions: 48 h incubation
Experimental: as §1, §2

[3] = system: A549; conditions: lung carcinoma cell line, 48 h incubation
Experimental: as §1, §2

[4] = system: SKOV3cis; conditions: for IC50: Cisplatin resistant SKOV3, MTT assay, 48 h incubation; for RF SKOV3 (resistance factor): SKOV3cis vs SKOV3
Experimental: as §1, §2

[5] = system: SKOV3; conditions: 48 h incubation
Experimental: as §1, §2

Compound | RF A2780 (resistance factor) [1] | IC50 [1] [µM] | IC50 [2] [µM] | IC50 [3] [µM] | IC50 [4] [µM] | RF SKOV3 (resistance factor) [4] | IC50 [5] [µM]
CSC(=S)C=C([O][Ru][Cl])c1ccc(O)cc1.Cc1ccc(C(C)C)cc1 [Ru4, [(η^6-p-cymene)Ru(1-(4-hydroxyphenyl)-3-(methylthio)-3-thioxo-prop-1-en-1-olate-O,S)Cl]] | 1 | 21.4 | 21.4 | 26.3 | 27.9 | 1.3 | 21.8
CCSC(=S)C=C([O][Ru][Cl])c1ccc(O)cc1.Cc1ccc(C(C)C)cc1 [Ru6, [(η^6-p-cymene)Ru(1-(4-hydroxyphenyl)-3-(ethylthio)-3-thioxo-prop-1-en-1-olate-O,S)Cl]] | 1 | 15.3 | 15.4 | 48.5 | 22.6 | 0.8 | 28.6
[(η^6-p-cymene)Os(1-(2-ethoxyphenyl)-3-(methylthio)-3-thioxo-prop-1-en-1-olate-O,S)] [Os13] | 2.7 | 0.8 | 0.3 | 3.1 | 7.1 | 1.7 | 4.1
[(η^6-p-cymene)Os(1-(2-methoxyphenyl)-3-(methylthio)-3-thioxo-prop-1-en-1-olate-O,S)] [Os7] | 5.3 | 2.1 | 0.4 | 6.2 | 0.6 | 0.1 | 8.8
[(η^6-p-cymene)Os(1-(3-ethoxyphenyl)-3-(methylthio)-3-thioxo-prop-1-en-1-olate-O,S)] [Os14] | 4.3 | 1.3 | 0.3 | 5.5 | 12.1 | 1.2 | 10.4
[(η^6-p-cymene)Ru(1-(2-ethoxyphenyl)-3-(methylthio)-3-thioxo-prop-1-en-1-olate-O,S)] [Ru13] | 1.8 | 4.8 | 2.6 | 28.4 | 17.4 | 1 | 16.9
[(η^6-p-cymene)Ru(1-(2-methoxyphenyl)-3-(ethylthio)-3-thioxo-prop-1-en-1-olate-O,S)] [Ru10] | 0.8 | 11.7 | 14.6 | 27.7 | 17.7 | 0.6 | 27.7
[(η^6-p-cymene)Ru(1-(2-methoxyphenyl)-3-(methylthio)-3-thioxo-prop-1-en-1-olate-O,S)] [Ru7] | 0.9 | 15 | 16.4 | 15.3 | 17.8 | 0.8 | 22.4
[(η^6-p-cymene)Ru(1-(3-butoxyphenyl)-3-(methylthio)-3-thioxo-prop-1-en-1-olate-O,S)] [Ru16] | 1.3 | 6.8 | 5.4 | 4.9 | 13.2 | 1 | 13.2
[(η^6-p-cymene)Ru(1-(3-methoxyphenyl)-3-(ethylthio)-3-thioxo-prop-1-en-1-olate-O,S)] [Ru11] | 0.8 | 11.8 | 15.6 | 19 | 16.8 | 1 | 17
[(η^6-p-cymene)Ru(1-(3-methoxyphenyl)-3-(methylthio)-3-thioxo-prop-1-en-1-olate-O,S)] [Ru8] | 1.2 | 16.8 | 14.3 | 13.7 | 20.3 | 1 | 21.3
